Marks after values point to notes of the source that are not given here. Peptide text beside a SMILES is read from it.
Tests used:
[1] = target: T1, DPP IV activity in HepG2 cells (Homo sapiens, UniProt P27487); experiment: Luminescence DPP IV assay in the cell‐based system (HepG2); settings: 24 h treatment; for IC20: read-out: DPP IV inhibition IC20
T1 construct: dose‐response in vitro experiments conducted using the HepG2 cell culture; host or cells: HepG2
Method: (§1) HepG2 cells were seeded in either 96‐well plates or 6‐well plates for 24 h. For the healthy cell model (NG), cells were incubated in a medium with a healthy/normal glucose level (5.5 mM glucose), and no stimulation was performed. For the insulin‐resistant cell model (HG), cells were stimulated according to the methods used in a previous publication. In brief, cells were treated for 24 h using 25 mM glucose with 100 nM insulin to stimulate insulin resistance in the HepG2 cells. After seeding or insulin‐resistant stimulation, the cells were treated with selected pure AB7S peptides, selected pure S7S peptides, peptide Asp‐Leu‐Asp‐Val (DLDV; peptide with no DPP IV inhibitory capacity), or 1 nM linagliptin (DPP IV inhibitor) for 24 h. […] Treated cells were used to either perform cell viability assays or were collected, centrifuged, and stored at −80°C until being used.
DPP IV inhibition was measured using the luminescence DPPIV‐GLO Protease assay (G8351, Promega, Madison, WI). In brief, treated cells were incubated with three concentrations of selected pure AB7S peptides or selected pure S7S peptides for 24 h, and linagliptin (1 nM) was used as a positive control. Treated cells were collected and stored at −80°C for no more than one week until being used for the DPPIV‐GLO protease assay. Percent inhibition was calculated, and results were presented as percent inhibition per log (µg peptide/mL). The IC values of the peptides were calculated using Origin Pro software (Version 2021, OriginLab Corporation, Northampton, MA, USA).

[2] = target: purified human DPP IV enzyme (Homo sapiens, UniProt P27487); experiment: Luminescence DPPIV‐GLO DPP IV inhibition biochemical assay (cell‐free system)
Chain of purified human DPP IV enzyme (P27487 whole entry): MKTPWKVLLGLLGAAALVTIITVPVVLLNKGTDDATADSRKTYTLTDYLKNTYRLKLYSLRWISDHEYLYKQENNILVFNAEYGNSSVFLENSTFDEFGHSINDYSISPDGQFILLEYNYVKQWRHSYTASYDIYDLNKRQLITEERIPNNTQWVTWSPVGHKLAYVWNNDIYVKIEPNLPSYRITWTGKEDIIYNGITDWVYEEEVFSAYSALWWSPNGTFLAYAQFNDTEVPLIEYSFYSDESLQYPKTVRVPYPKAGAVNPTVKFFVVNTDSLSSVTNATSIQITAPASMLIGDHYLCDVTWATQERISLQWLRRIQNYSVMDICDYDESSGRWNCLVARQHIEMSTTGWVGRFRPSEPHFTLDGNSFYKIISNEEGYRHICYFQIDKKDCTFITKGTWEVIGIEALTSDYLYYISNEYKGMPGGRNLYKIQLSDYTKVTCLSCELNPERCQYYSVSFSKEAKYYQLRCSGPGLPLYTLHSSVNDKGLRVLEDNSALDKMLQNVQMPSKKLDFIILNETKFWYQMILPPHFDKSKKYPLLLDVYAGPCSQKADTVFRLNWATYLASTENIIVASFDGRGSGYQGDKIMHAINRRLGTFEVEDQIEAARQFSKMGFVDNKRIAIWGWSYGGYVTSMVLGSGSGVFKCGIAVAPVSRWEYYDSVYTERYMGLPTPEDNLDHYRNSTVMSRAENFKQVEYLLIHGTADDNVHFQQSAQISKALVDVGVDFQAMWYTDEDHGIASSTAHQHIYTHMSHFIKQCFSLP
Method: The luminescence DPPIV‐GLO Protease assay (G8351, Promega, Madison, WI) was performed to measure the DPP IV inhibitory capacity of selected AB7S peptides and S7S peptides. Percent inhibition was calculated for each sample. Results were presented as percent inhibition per log (µg peptide/mL). The inhibitory concentration (IC) values of the peptides were calculated using Origin Pro software (Version 2021, OriginLab Corporation, Northampton, MA, USA).

[3] = tested on: Akt (AKT serine/threonine kinase); experiment: Insulin receptor phospho antibody microarray: Akt; type: cell-based, human; settings: VP 9.58 µM, HepG2, healthy state, related to the untreated control, p < 0.05
Method: (§2) Cells treated with VP (9.58 µM) and the untreated cells were tested using immunoassay proteomics. The IC50 value of VP obtained from the luminescence‐based DPP IV inhibition biochemical assay was used as the treatment concentration. Cells were treated as described in Section 2.4. An insulin receptor microarray was performed according to the manufacturer's instructions to test the protein expression of markers in the insulin signaling pathway (Insulin Receptor Phospho Antibody Array, PIG219, Full Moon BioSystem, Sunnyvale, CA, USA). Array signals were visualized with a 20× objective using a Widefield Fluorescence Microscope (Carl Zeiss AG, Germany) and were analyzed as previously described. Student's t‐test was used to assess the differences between the VP treatment and the negative control.

Glut 2 [4] = experiment: Western blot Glut 2 protein expression in HepG2 cells; type: cell-based, human; settings: for Glut 2 protein expression, increase over untreated controls: healthy state (NG, 5.5 mM glucose), linagliptin 1 nM; for Glut 2 protein expression, increase over untreated controls / Glut 2 protein expression, increase over untreated insulin‐resistant cells: VP 9.58 µM, IPA 7.86 µM, DLDV 1790 µM, 24 h; for Glut 2 protein expression, increase over untreated insulin‐resistant cells: insulin‐resistant state (HG, 25 mM glucose with 100 nM insulin)
Method: as §1
(§3) Cells treated with VP (9.58 µM), IPA (7.86 µM), DLDV (1790 µM), or linagliptin (1 nM) and untreated cells were used for western blot. In brief, membranes were incubated with conjugated antibodies for human IRS‐1 (sc‐8038 HRP, 1:100) and Akt‐1 (sc‐5298 HRP, 1:100), or ACCα (sc‐137104 HRP, 1:100) overnight at 4°C and washed. Membranes were also incubated with unconjugated primary antibodies for human Glut 2 (07‐1402, 1:1000), then washed and probed with secondary sheep anti‐mouse and donkey anti‐rabbit antibodies (NA931V and NA934V, 1:2500, 2 h, room temperature; Cytiva, Marlborough, MA, USA). GAPDH (sc‐25778 HRP or sc‐47724, 1:4000) was used as the protein loading control and was used to evaluate the relative expression of each protein. Clarity Western ECL Substrate (Bio‐Rad, Hercules, CA, USA) and ImageQuant 800 System (GE Healthcare, Buckinghamshire, UK) were used for imaging.

IR (Insulin receptor) = experiment: Insulin receptor phospho antibody microarray: IR; type: cell-based, human; settings: VP 9.58 µM, HepG2, healthy state, related to the untreated control, p < 0.05
Method: as §2

Glut 2 [5] = experiment: Glut 2 immunocytochemical fluorescence confocal microscopy in HepG2 cells; type: cell-based, human; settings: VP 9.58 µM, linagliptin 1 nM; for Glut 2 fluorescence emission, higher than the untreated control: healthy state; for Glut 2 fluorescence emission, increase compared to the untreated insulin‐resistant cells: insulin‐resistant state
Method: as §1
The expression of Glut 2 due to the peptide treatment (VP, 9.58 µM) was investigated in HepG2 cells seeded in Ibidi imaging dish (Ibidi, Fitchburg, WI, USA). Cells were treated as described in Section 2.4. The positive control (1 nM linagliptin) was also tested. The immunocytochemical fluorescence confocal microscopy was performed according to a previous procedure. In brief, cells were fixed, permeabilized, blocked, and incubated with Glut 2 antibodies (07‐1402, 1:1000) overnight at 4°C. Cells were then washed twice, incubated with anti‐rabbit IgG secondary antibody (A‐11012; 1:200) for 2 h in the dark, cured with ProLong Gold Antifade Reagent with DAPI (4′,6‐diamidino‐2‐phenylindole), and stored at 4°C until imaging. Cell images were obtained with 63× oil immersion objective (Glut 2: excitation wavelength: 557 nm, emission wavelength: 572 nm; DAPI: excitation wavelength: 353 nm; emission wavelength: 465 nm) using a Carl Zeiss LSM 900 Laser Scanning Microscope (Carl Zeiss AG, Germany).

Akt‐1 = experiment: Western blot Akt‐1 protein expression in HepG2 cells; type: cell-based, human; settings: VP 9.58 µM, IPA 7.86 µM, DLDV 1790 µM, 24 h; for Akt‐1 protein expression, increase over untreated controls: healthy state (NG, 5.5 mM glucose), linagliptin 1 nM; for Akt‐1 protein expression, increase over untreated insulin‐resistant cells: insulin‐resistant state (HG, 25 mM glucose with 100 nM insulin)
Method: as §1, §3

[6] = tested on: Akt1S1 (AKT1 substrate 1); experiment: Insulin receptor phospho antibody microarray: Akt1S1; type: cell-based, human; settings: VP 9.58 µM, HepG2, healthy state, related to the untreated control, p < 0.05
Method: as §2

ACCα = experiment: Western blot ACCα protein expression in HepG2 cells; type: cell-based, human; settings: VP 9.58 µM, IPA 7.86 µM, DLDV 1790 µM, 24 h; for ACCα protein expression, change versus untreated controls: healthy state (NG, 5.5 mM glucose), linagliptin 1 nM; for ACCα protein expression, change versus untreated insulin‐resistant cells: insulin‐resistant state (HG, 25 mM glucose with 100 nM insulin)
Method: as §1, §3

[7] = tested on: Shc (SHC‐transforming protein 1); experiment: Insulin receptor phospho antibody microarray: Shc; type: cell-based, human; settings: VP 9.58 µM, HepG2, healthy state, related to the untreated control, p < 0.05
Method: as §2

[8] = tested on: PP2A‐α (Protein phosphatase 2 alpha); experiment: Insulin receptor phospho antibody microarray: PP2A‐α; type: cell-based, human; settings: VP 9.58 µM, HepG2, healthy state, related to the untreated control, p < 0.05
Method: as §2

IRS‐1 = experiment: Western blot IRS‐1 protein expression in HepG2 cells; type: cell-based, human; settings: VP 9.58 µM, IPA 7.86 µM, DLDV 1790 µM, 24 h; for IRS‐1 protein expression, increase over untreated controls: healthy state (NG, 5.5 mM glucose), linagliptin 1 nM; for IRS‐1 protein expression, increase over untreated insulin‐resistant cells: insulin‐resistant state (HG, 25 mM glucose with 100 nM insulin)
Method: as §1, §3

[9] = tested on: IRS‐1 (Insulin receptor substrate 1); experiment: Insulin receptor phospho antibody microarray: IRS‐1; type: cell-based, human; settings: VP 9.58 µM, HepG2, healthy state, related to the untreated control, p < 0.05
Method: as §2

[10] = tested on: AMPK1/AMPK2 (AMP‐activated protein kinase catalytic subunit alpha‐1/2); experiment: Insulin receptor phospho antibody microarray: AMPK1/AMPK2; type: cell-based, human; settings: VP 9.58 µM, HepG2, healthy state, related to the untreated control, p < 0.05
Method: as §2

[11] = tested on: mTOR (Mechanistic target of rapamycin); experiment: Insulin receptor phospho antibody microarray: mTOR; type: cell-based, human; settings: VP 9.58 µM, HepG2, healthy state, related to the untreated control, p < 0.05
Method: as §2

T1 sequence (P27487 whole entry): as above

CC[C@H](C)[C@H](N)C(=O)N1CCC[C@H]1C(=O)N[C@@H](C)C(=O)O [IPA, Ile‐Pro‐Ala] (H-Ile-Pro-Ala-OH)
IC20 [1]: 3.66 µM | IC50 ([1]; read-out: DPP IV inhibition IC50): 7.86 µM | IC20 [2]: 33.1 µM | IC50 [2]: 70.5 µM

CC(C)[C@H](N)C(=O)N1CCC[C@H]1C(=O)O [VP, Val‐Pro] (H-Val-Pro-OH; N-terminus and C-terminus assumed)
Akt Phosphorylated/Non‐phosphorylated ratio [3]: 3.9^* Fold Change | Power in increasing Glut 2 protein expression relative to the digested adzuki bean β‐vignin protein (Glut 2 [4]; HepG2, comparison based on previous data): > 100 times | Glut 2 protein expression, increase over untreated controls (Glut 2 [4]): > 25% | Glut 2 protein expression, increase over untreated insulin‐resistant cells (Glut 2 [4]): > 25% | IR Phosphorylated/Non‐phosphorylated ratio (IR (Insulin receptor)): 1.7^* Fold Change | Glut 2 fluorescence emission, higher than the untreated control (Glut 2 [5]): 36% | Glut 2 fluorescence emission, increase compared to the untreated insulin‐resistant cells (Glut 2 [5]): > 14% | Akt‐1 protein expression, increase over untreated controls (Akt‐1): > 25% | Akt‐1 protein expression, increase over untreated insulin‐resistant cells (Akt‐1): > 25% | IC20 [1]: 4.69 µM | Akt1S1 Phosphorylated/Non‐phosphorylated ratio [6]: 1.3^* Fold Change | ACCα protein expression, change versus untreated controls (ACCα): no changes | ACCα protein expression, change versus untreated insulin‐resistant cells (ACCα): not different | Shc Phosphorylated/Non‐phosphorylated ratio [7]: 3.2^* Fold Change | PP2A‐α Phosphorylated/Non‐phosphorylated ratio [8]: 2.6^* Fold Change | IRS‐1 protein expression, increase over untreated controls (IRS‐1): > 50% | IRS‐1 protein expression, increase over untreated insulin‐resistant cells (IRS‐1): > 25% | IC20 [2]: 200 µM | IRS‐1 Phosphorylated/Non‐phosphorylated ratio [9]: 0.2^* Fold Change | AMPK1/AMPK2 Phosphorylated/Non‐phosphorylated ratio [10]: 3.5^* Fold Change | mTOR Phosphorylated/Non‐phosphorylated ratio [11]: 3.6^* Fold Change

CC#CCn1c(N2CCC[C@@H](N)C2)nc2c1c(=O)n(Cc1nc(C)c3ccccc3n1)c(=O)n2C [linagliptin, Linagliptin, reference compound]
Glut 2 protein expression, increase over untreated controls (Glut 2 [4]): > 25% | Glut 2 fluorescence emission, higher than the untreated control (Glut 2 [5]): 36% | Glut 2 fluorescence emission, increase compared to the untreated insulin‐resistant cells (Glut 2 [5]): > 14% | Akt‐1 protein expression, increase over untreated controls (Akt‐1): > 25% | ACCα protein expression, change versus untreated controls (ACCα): no changes | IRS‐1 protein expression, increase over untreated controls (IRS‐1): > 50%

Asp‐Leu‐Asp‐Val [DLDV]
Glut 2 protein expression, increase over untreated controls (Glut 2 [4]): no differences | Glut 2 protein expression, increase over untreated insulin‐resistant cells (Glut 2 [4]): no differences | Akt‐1 protein expression, increase over untreated controls (Akt‐1): no differences | Akt‐1 protein expression, increase over untreated insulin‐resistant cells (Akt‐1): no differences | ACCα protein expression, change versus untreated controls (ACCα): no differences | ACCα protein expression, change versus untreated insulin‐resistant cells (ACCα): no differences | IRS‐1 protein expression, increase over untreated controls (IRS‐1): no differences | IRS‐1 protein expression, increase over untreated insulin‐resistant cells (IRS‐1): no differences

Leu‐Leu‐Ser [LLS]
IC20 [1]: 7.13 µM | IC20 [2]: 40.1 µM

Phe‐Asn‐Glu [FNE]
DPP IV inhibition IC5 [1]: 63.52 µM | DPP IV inhibition IC5 [2]: 5.65 µM

Pro‐Met [PM]
IC20 [1]: 5.14 µM | IC20 [2]: 59.4 µM

— publication PMC12700049, “Peptides From Adzuki Bean and Soybean Improved Insulin‐AKT Signaling‐Related Pathways in Healthy and Insulin‐Resistant States in Human Liver Cells” (Molecular Nutrition & Food Research, 2025)
